The supplement of paper PMC10307832

Key:
Assay in all cases: relative viability (nuclei count vs DMSO), 5 days (fraction); higher = more cells survive
Cediranib + Tozasertib = compound: COc1cc2c(Oc3ccc4[nH]c(C)cc4c3F)ncnc2cc1OCCCN1CCCC1 [Cediranib] + Cc1cc(Nc2cc(N3CCN(C)CC3)nc(Sc3ccc(NC(=O)C4CC4)cc3)n2)n[nH]1 [Tozasertib] (partner 0.1 µM)
Summary of the method: (§1)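 Lung cancer cell lines, seeded in 1536-well plates, were treated the following day by pin tool with a single drug or with five library-drug doses (not always all listed) in √10 steps on top of a fixed anchor-drug dose. Cells were fixed and nuclei stained in one step after 5 days, and nuclei were counted. Relative viability is the nuclei count for treated wells divided by that for vehicle wells, reported as medians of duplicate plates.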

Decitabine + Phenformin = compound: Nc1ncn([C@H]2C[C@H](O)[C@@H](CO)O2)c(=O)n1 [Decitabine] + N=C(N)NC(=N)NCCc1ccccc1 [Phenformin] (partner 250 µM)
Summary of the method: as §1

Decitabine + Trametinib = compound: Nc1ncn([C@H]2C[C@H](O)[C@@H](CO)O2)c(=O)n1 [Decitabine] + CC(=O)Nc1cccc(-n2c(=O)n(C3CC3)c(=O)c3c(Nc4ccc(I)cc4F)n(C)c(=O)c(C)c32)c1 [Trametinib] (partner 0.02 µM)
Summary of the method: as §1

Decitabine + Dasatinib = compound: Nc1ncn([C@H]2C[C@H](O)[C@@H](CO)O2)c(=O)n1 [Decitabine] + Cc1nc(Nc2ncc(C(=O)Nc3c(C)cccc3Cl)s2)cc(N2CCN(CCO)CC2)n1 [Dasatinib] (partner 0.075 µM)
Summary of the method: as §1

Cell Line	relative viability (Cediranib + Tozasertib; first compound 0.04 µM)	relative viability (Cediranib + Tozasertib; first compound 0.1265 µM)	relative viability (Cediranib + Tozasertib; first compound 0.4 µM)	relative viability (Cediranib + Tozasertib; first compound 1.265 µM)	relative viability (Cediranib + Tozasertib; first compound 4 µM)	relative viability (Decitabine + Phenformin; first compound 0.04 µM)	relative viability (Decitabine + Phenformin; first compound 0.1265 µM)	relative viability (Decitabine + Phenformin; first compound 0.4 µM)	relative viability (Decitabine + Phenformin; first compound 1.265 µM)	relative viability (Decitabine + Phenformin; first compound 4 µM)	relative viability (Decitabine + Trametinib; first compound 0.04 µM)	relative viability (Decitabine + Trametinib; first compound 0.1265 µM)	relative viability (Decitabine + Trametinib; first compound 0.4 µM)	relative viability (Decitabine + Trametinib; first compound 1.265 µM)	relative viability (Decitabine + Trametinib; first compound 4 µM)	relative viability (Decitabine + Dasatinib; first compound 0.04 µM)	relative viability (Decitabine + Dasatinib; first compound 0.1265 µM)	relative viability (Decitabine + Dasatinib; first compound 0.4 µM)	relative viability (Decitabine + Dasatinib; first compound 1.265 µM)	relative viability (Decitabine + Dasatinib; first compound 4 µM)
LCLC-103H	0.501	0.505	0.467	0.469	0.5	0.319	0.36	0.293	0.328	0.315	0.659	0.714	0.771	0.623	0.688	0.507	0.57	0.457	0.337	0.374
EKVX	0.349	0.502	0.366	0.436	0.473	0.223	0.22	0.227	0.177	0.202	0.254	0.25	0.259	0.221	0.23	0.479	0.494	0.368	0.36	0.329
NCI-H460	0.494	0.391	0.429	0.603	0.355	0.473	0.473	0.472	0.223	0.157	0.173	0.229	0.214	0.109	0.13	0.453	0.682	0.341	0.239	0.183
NCI-H2170	0.846	0.659	0.735	0.677	0.787	0.345	0.365	0.291	0.269	0.282	0.651	0.639	0.587	0.41	0.282	0.528	0.502	0.461	0.269	0.228
NCI-H727	–	0.591	0.536	0.762	0.549	0.549	0.503	0.367	0.423	0.362	0.396	0.377	0.344	0.372	0.363	0.397	0.458	0.338	0.334	0.34
NCI-H838	0.272	0.264	0.229	0.297	0.276	0.398	0.409	0.247	0.266	0.242	0.476	0.397	0.237	0.283	0.279	0.326	0.325	0.241	0.273	0.242
H3255	0.578	–	0.599	0.654	0.43	–	0.339	0.364	0.291	0.347	–	0.686	0.506	0.5	0.46	–	0.341	0.251	0.351	0.252
EPLC-272H	0.267	–	0.31	–	0.297	–	0.26	0.0458	0.223	0.199	0.293	0.29	–	0.251	0.234	–	0.297	0.118	0.232	0.144
NCI-H647	0.306	0.225	0.3	0.227	0.255	0.372	0.399	0.25	0.101	0.172	0.589	0.595	0.43	0.246	0.138	0.212	0.261	0.196	0.104	0.0939
LXF-289	0.231	0.219	0.212	0.212	0.2	0.431	0.371	0.263	0.26	0.228	0.647	0.519	0.38	0.312	0.314	0.201	0.193	0.129	0.118	0.0831
NCI-H1650	0.585	0.374	0.36	0.476	0.329	0.309	0.386	0.303	0.246	0.361	0.369	0.642	0.536	0.326	0.287	0.328	0.314	0.247	0.26	0.248
NCI-H1755	0.54	0.481	0.532	0.595	0.547	0.625	0.629	0.43	0.442	0.465	0.653	0.743	0.688	0.564	0.488	0.47	0.467	0.422	0.365	0.306
HCC-15	0.507	–	0.391	0.36	0.358	0.448	0.49	0.252	0.327	0.333	0.4	0.399	0.353	0.338	0.313	0.625	0.581	0.408	0.361	0.333
EMC-BAC-2	0.284	0.238	0.278	0.286	0.3	0.514	0.541	0.462	0.414	0.406	–	0.935	0.795	0.841	0.8	0.334	0.343	0.343	0.284	0.26
NCI-H1734	0.262	0.246	0.278	0.277	0.245	0.348	0.38	0.382	0.276	0.274	0.595	0.575	0.404	0.313	0.333	0.433	0.378	0.423	0.298	0.219
NCI-H1395	0.739	0.773	0.666	0.74	0.791	0.398	0.407	0.46	0.411	0.399	0.793	0.906	0.828	0.655	0.607	0.409	0.416	0.428	0.413	0.417
HOP-62	0.366	0.457	0.388	0.379	0.352	0.464	0.374	0.175	0.168	0.148	0.358	0.338	0.262	0.202	0.187	0.634	0.622	0.284	0.14	0.147
